{
  "source": "paper PMC6440464",
  "about": "(PeerJ, 2019)",
  "assay": "Pharmacokinetics study after separate oral administration in rats (HPLC-MS of plasma)",
  "type": "in vivo, Sprague-Dawley rats",
  "details": "for half-life: read-out: t1/2z",
  "method": "A total of 15 SPF Sprague-Dawley rats (SD, male, 190–210 g) were provided by Sino-British Sippr/BK Lab Animal Company Ltd. (Shanghai, China). The rats were kept in standard conditions (22–26 °C; 40–60% relative humidity; 12 h light/dark cycle). Throughout the rearing period, the animals had access to food and water ad libitum. Animal experiments were conducted in accordance with the standard ethical guidelines of the Laboratory Animal Management Committee of Jiangsu Province (SYXK (SU) 2016-0011).\nFollowing 1 week of adaptation, the rats were fasted for about 12 h before dosing, with free access to water. […] After administration of the first dose, blood samples were taken from the retro-orbital vein at 0, 5, 15, 30, 60, 90, 120, 180, 240, 360, 480, and 1,440 min and collected in heparinized tubes. The samples were centrifuged at 3,500 rpm for 10 min at 4 °C and the plasma was stored at −80 °C until analysis.\nAn Agilent 1,200 series HPLC system (Agilent Technologies, Waldbronn, Germany) equipped with a quaternary pump on-line degasser, auto-sampler and column oven, and an SL G1946D quadruple mass spectrometer (Agilent Technologies, Santa Clara, CA, USA) equipped with an electrospray ionization (ESI) source, were used for separation and detection. Data were acquired and analyzed using Agilent ChemStation Software Version A.01.00 (Agilent Technologies, Santa Clara, CA, USA).\nThe separation was carried out with an Amethyst C18-H column (150 × 4.6 mm, 5 μm, Sepax Technologies, Newark, DE, USA) with a guard column SB-C18 (10 × 4.6 mm, 5 μm, Phenomenex Technologies, Torrance, USA) at a constant temperature of 25 °C.\nThe mass spectra were acquired using ESI interfaced to a single quadrupole mass spectrometer. The ionization conditions were as follows: drying gas (N2) flow rate of 11 L/min, drying gas temperature of 350 °C, nebulizing gas (N2) pressure of 35 psi, capillary voltage of 3,500 V, quad temperature of 100 °C, and fragment voltage of 110 V. A series of m/z were monitored using a timed program according to the retention times and characteristic ions for the corresponding HPLC-MS peak obtained by scanning from m/z 100–1,000 in the standard sample.\nBriefly, an aliquot of plasma sample (100 μL) was spiked with 5% formic acid (10 μL) in centrifuge tube. Subsequently, hydrochloric acid (2 mol/L, 10 μL) and IS solution (960.00 ng/mL, 20 μL) were added. Then ethyl acetate/n-butyl alcohol (1:1 v/v; 1,000 μL) was used to extract the components. The samples were then homogenized by vortex mixing and centrifuged for 10 min at 14,000 rpm. After centrifugation, 800 μL of supernatant was transferred to another centrifuge tube and the sample was evaporated to dryness. The residues were dissolved in 100 μL of methanol and centrifuged for 10 min at 12,000 rpm. 50 μL of the supernatant was transferred to the vial and an aliquot of 5 μL was injected into the HPLC-MS system for analysis.\nDAS 2.0 (Chinese Pharmacological Association, Shanghai, China) was used to calculate the pharmacokinetic parameters using the non-compartment model, including the area under curve (AUC), mean residence time (MRT), half-life ( t1/2z), clearance rate (CL), maximum plasma concentration (Cmax), and time (Tmax). All results are expressed as mean ± standard deviation (SD). One way analysis of variance followed by […] was used for comparison of different groups using Graph pad prism 5 software. A p-value of <0.05 was considered statistically significant.",
  "key": {"[1]": {"details": "IQ group (oral IQ 50 mg/kg), rat plasma, labelled substance = analyte, individual rats No1-No5"}},
  "note": "Values joined by “and” are separate entries in the source; they are usually repeats but may differ in a detail not shown here. Equal values may be shown once. Read-outs that look alike come from different tables or passages of the source.",
  "data": [
    {"smiles": "O=c1c(O[C@@H]2O[C@H](CO)[C@@H](O)[C@H](O)[C@H]2O)c(-c2ccc(O)c(O)c2)oc2cc(O)cc(O)c12", "note": "[IQ, Isoquercitrin]", "values": [
      {"measurement": "Plasma concentrations", "setting": "IQ group (oral IQ 50 mg/kg), 5 min, individual rats NO. 1-5", "result": "0.0934 µg/mL and 0.0774 µg/mL and 0.0493 µg/mL and 0.0335 µg/mL and 0.1108 µg/mL"},
      {"measurement": "Plasma concentrations", "setting": "IQ group (oral IQ 50 mg/kg), 15 min, individual rats NO. 1-5", "result": "0.3981 µg/mL and 0.2105 µg/mL and 0.1113 µg/mL and 0.0464 µg/mL and 0.3803 µg/mL"},
      {"measurement": "Plasma concentrations", "setting": "IQ group (oral IQ 50 mg/kg), 30 min, individual rats NO. 1-5", "result": "0.3658 µg/mL and 0.4136 µg/mL and 0.1507 µg/mL and 0.3866 µg/mL and 0.3886 µg/mL"},
      {"measurement": "Plasma concentrations", "setting": "IQ group (oral IQ 50 mg/kg), 60 min, individual rats NO. 1-5", "result": "0.1335 µg/mL and 0.1563 µg/mL and 0.1140 µg/mL and 0.0299 µg/mL and 0.2027 µg/mL"},
      {"measurement": "Plasma concentrations", "setting": "IQ group (oral IQ 50 mg/kg), 90 min, individual rats NO. 1-5", "result": "0.0372 µg/mL and 0.1114 µg/mL and 0.0310 µg/mL and 0.0260 µg/mL and 0.1543 µg/mL"},
      {"measurement": "Plasma concentrations", "setting": "IQ group (oral IQ 50 mg/kg), 120 min, individual rats NO. 1-5", "result": "0.0000 μg/mL (3×) and 0.0534 μg/mL and 0.0884 μg/mL"},
      {"measurement": "Plasma concentrations", "setting": "IQ group (oral IQ 50 mg/kg), 180 min, individual rats NO. 1-5", "result": 0.0000, "unit": "µg/mL"},
      {"measurement": "Plasma concentrations", "setting": "IQ group (oral IQ 50 mg/kg), 240 min, individual rats NO. 1-5", "result": 0.0000, "unit": "µg/mL"},
      {"measurement": "Plasma concentrations", "setting": "IQ group (oral IQ 50 mg/kg), 360 min, individual rats NO. 1-5", "result": 0.0000, "unit": "µg/mL"},
      {"measurement": "Plasma concentrations", "setting": "IQ group (oral IQ 50 mg/kg), 480 min, individual rats NO. 1-5", "result": 0.0000, "unit": "µg/mL"},
      {"measurement": "Plasma concentrations", "setting": "IQ group (oral IQ 50 mg/kg), 1440 min, individual rats NO. 1-5", "result": 0.0000, "unit": "µg/mL"},
      {"measurement": "AUC(0-t)", "setting": "[1]", "result": "307.8 ng·h/mL and 355.8 ng·h/mL and 150.6 ng·h/mL and 180.27 ng·h/mL and 439.42 ng·h/mL"},
      {"measurement": "CLz/F", "setting": "[1]", "result": "2565 mL/min/kg and 2104 mL/min/kg and 4792 mL/min/kg and 3572 mL/min/kg and 1528 mL/min/kg"},
      {"measurement": "Cmax", "setting": "[1]", "result": "398.1 ng/mL and 413.6 ng/mL and 150.7 ng/mL and 386.6 ng/mL and 388.6 ng/mL"},
      {"measurement": "MRT(0-t)", "setting": "[1]", "result": "46.827 min and 41.112 min and 33.266 min and 48.488 min"},
      {"measurement": "Tmax", "setting": "[1]", "result": 30, "unit": "min"},
      {"measurement": "t1/2z", "setting": "[1]", "result": "18.181 min and 30.631 min and 26.313 min and 87.922 min and 49.884 min"},
      {"measurement": "Detection in rat plasma", "setting": "IQ group: oral IQ 50 mg/kg", "result": "could be detected in rat plasma"},
      {"measurement": "Time until which the AUC could be accessed", "setting": "IQ group: oral IQ 50 mg/kg", "result": "90 to 120", "unit": "min"},
      {"measurement": "CL", "setting": "IQ group: oral IQ 50 mg/kg, rat plasma, mean ± SD, n = 5", "result": "2910 ± 1290", "unit": "mL/min/kg"},
      {"measurement": "concentration at 180 min", "setting": "male, Sprague-Dawley, rat, plasma, oral, 50 mg/kg, IQ group (oral IQ 50 mg/kg), 180 min, individual rats NO. 1-5, read-out: Plasma concentrations", "result": 0, "unit": "ng/mL"},
      {"measurement": "concentration at 240 min", "setting": "male, Sprague-Dawley, rat, plasma, oral, 50 mg/kg, IQ group (oral IQ 50 mg/kg), 240 min, individual rats NO. 1-5, read-out: Plasma concentrations", "result": 0, "unit": "ng/mL"},
      {"measurement": "concentration at 360 min", "setting": "male, Sprague-Dawley, rat, plasma, oral, 50 mg/kg, IQ group (oral IQ 50 mg/kg), 360 min, individual rats NO. 1-5, read-out: Plasma concentrations", "result": 0, "unit": "ng/mL"},
      {"measurement": "concentration at 480 min", "setting": "male, Sprague-Dawley, rat, plasma, oral, 50 mg/kg, IQ group (oral IQ 50 mg/kg), 480 min, individual rats NO. 1-5, read-out: Plasma concentrations", "result": 0, "unit": "ng/mL"},
      {"measurement": "concentration at 1440 min", "setting": "male, Sprague-Dawley, rat, plasma, oral, 50 mg/kg, IQ group (oral IQ 50 mg/kg), 1440 min, individual rats NO. 1-5, read-out: Plasma concentrations", "result": 0, "unit": "ng/mL"},
      {"measurement": "MRT last", "setting": "male, Sprague-Dawley, rat, plasma, po, 50 mg/kg, IQ group (oral IQ 50 mg/kg), rat plasma, labelled substance = analyte, individual rats No1-No5, read-out: MRT(0-t) (converted)", "result": 33.3, "unit": "min"},
      {"measurement": "Tmax", "setting": "male, Sprague-Dawley, rat, plasma, po, 50 mg/kg, IQ group (oral IQ 50 mg/kg), rat plasma, labelled substance = analyte, individual rats No1-No5, read-out: Tmax (converted)", "result": 15, "unit": "min"},
      {"measurement": "AUC(0-t)", "setting": "male, Sprague-Dawley, rat, plasma, po, 50 mg/kg, IQ group (oral IQ 50 mg/kg), rat plasma, labelled substance = analyte, mean of 5 rats, read-out: AUC(0-t) (converted)", "result": 287, "unit": "ng·h/mL"},
      {"measurement": "CL/F", "setting": "male, Sprague-Dawley, rat, plasma, po, 50 mg/kg, IQ group (oral IQ 50 mg/kg), rat plasma, labelled substance = analyte, mean of 5 rats, read-out: CLz/F", "result": 2910, "unit": "mL/min/kg"},
      {"measurement": "Cmax", "setting": "male, Sprague-Dawley, rat, plasma, po, 50 mg/kg, IQ group (oral IQ 50 mg/kg), rat plasma, labelled substance = analyte, mean of 5 rats, read-out: Cmax", "result": 348, "unit": "ng/mL"},
      {"measurement": "MRT last", "setting": "male, Sprague-Dawley, rat, plasma, po, 50 mg/kg, IQ group (oral IQ 50 mg/kg), rat plasma, labelled substance = analyte, mean of 5 rats, read-out: MRT(0-t) (converted)", "result": 40.6, "unit": "min"},
      {"measurement": "Tmax", "setting": "male, Sprague-Dawley, rat, plasma, po, 50 mg/kg, IQ group (oral IQ 50 mg/kg), rat plasma, labelled substance = analyte, mean of 5 rats, read-out: Tmax (converted)", "result": 27, "unit": "min"},
      {"measurement": "half-life", "setting": "male, Sprague-Dawley, rat, plasma, po, 50 mg/kg, IQ group (oral IQ 50 mg/kg), rat plasma, labelled substance = analyte, mean of 5 rats", "result": 42.6, "unit": "min"},
      {"measurement": "AUC(0-t)", "setting": "male, Sprague-Dawley, rat, plasma, po, 50 mg/kg, IQ group: oral IQ 50 mg/kg, rat plasma, mean ± SD, n = 5, read-out: AUC0−t (converted)", "result": 287, "unit": "ng·h/mL"},
      {"measurement": "Cmax", "setting": "male, Sprague-Dawley, rat, plasma, po, 50 mg/kg, IQ group: oral IQ 50 mg/kg, rat plasma, mean ± SD, n = 5, read-out: Cmax", "result": "350 ± 110", "unit": "ng/mL"},
      {"measurement": "MRT last", "setting": "male, Sprague-Dawley, rat, plasma, po, 50 mg/kg, IQ group: oral IQ 50 mg/kg, rat plasma, mean ± SD, n = 5, read-out: MRT0−t (converted)", "result": 40.6, "unit": "min"},
      {"measurement": "Tmax", "setting": "male, Sprague-Dawley, rat, plasma, po, 50 mg/kg, IQ group: oral IQ 50 mg/kg, rat plasma, mean ± SD, n = 5, read-out: Tmax (converted)", "result": 27, "unit": "min"},
      {"measurement": "half-life", "setting": "male, Sprague-Dawley, rat, plasma, po, 50 mg/kg, IQ group: oral IQ 50 mg/kg, rat plasma, mean ± SD, n = 5", "result": "42.6 ± 27.9", "unit": "min"}
    ]}
  ]
}
